Data from PubChem BioAssay (NCI).
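48-hour exposure; five concentrations; linearly interpolated endpoints. At the GI50, growth is halved. Definition used: TGI = concentration required for complete inhibition of growth.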

Key:
Assay in all cases: growth of human tumour cells (NCI), 48 h
[1] = system: BT-549 breast
[2] = system: HS 578T breast
[3] = system: MDA-MB-231 breast
[4] = system: PC-3 prostate
[5] = system: DLD-1 colon
[6] = system: DMS 114 small cell lung
[7] = system: DMS 273 small cell lung
[8] = system: KM20L2 colon
[9] = system: M19-MEL melanoma
[10] = system: SNB-78 CNS
[11] = system: XF 498 CNS
[12] = system: M14 melanoma
[13] = system: T-47D breast

Compound | TGI [1] | TGI [2] | TGI [3] | TGI [4] | TGI [5] | TGI [6] | TGI [7] | TGI [8] | TGI [9] | TGI [10] | TGI [11] | TGI [12] | GI50 [1] | GI50 [2] | GI50 [12] | GI50 [3] | GI50 [13] | TGI [13] | GI50 [4]
N=c1c2c(=S)n(-c3ccccc3)c(=S)n(-c3ccccc3)c2nc(SCCCN2CCN(c3cccc(Cl)c3)CC2)n1-c1ccccc1 | > 100 µM | > 100 µM | 70.9 µM | > 100 µM |  |  |  |  |  |  |  |  |  |  |  |  |  |  | 
COC(=O)c1cccc(N[C@@H]2c3cc4c(cc3C(c3cc(OC)c(O)c(OC)c3)[C@H]3C(=O)OCC32)OCO4)c1 (stereo partly drawn) |  |  |  |  | 15 µM | 4.3 µM | 3.35 µM | > 32.7 µM | > 100 µM | 98.7 µM | > 27.4 µM |  |  |  |  |  |  |  | 
C=C1C(=O)OC2/C=C(/C)C3CC(O)C(C)(CC(OC(=O)/C(C)=C/C)C12)O3 (stereo not drawn) |  |  |  |  | 3.12 µM | 19.8 µM | 8.8 µM | 13.1 µM | 9.57 µM | 7.7 µM | 17.2 µM | 9.08 µM |  |  |  |  |  |  | 
O=C(O)CS |  |  |  |  | > 100 µM | > 100 µM | > 100 µM | > 100 µM | > 100 µM | > 100 µM | > 100 µM |  |  |  |  |  |  |  | 
Nc1nc(Cl)cc(OCC2(CO)CC(OCc3ccccc3)C2)n1 (stereo not drawn) |  |  |  |  |  |  |  |  |  |  |  |  | 46 µM | 34 µM | 95 µM | 26.2 µM | 18.9 µM | 92.3 µM | 
COc1cc(/C=C/c2cc(/C=C/c3ccc(O)c(OC)c3)nc(N)n2)ccc1O |  | 2.99 µM | 4.08 µM | 5.57 µM |  |  |  |  |  |  |  |  |  | 0.524 µM |  | 1.45 µM | 2.83 µM | 9.55 µM | 1.48 µM
CC(=O)Oc1ccc2c(c1)oc1c3ccc(OC(C)=O)cc3n(C)c(=O)c21 | > 100 µM | > 100 µM | > 100 µM | > 100 µM |  |  |  |  |  |  |  | > 100 µM |  |  |  |  |  | > 100 µM | 
C=C1C(=O)C[C@@]23CCC[C@@]12CC(OCOC)C3 (stereo partly drawn) |  |  |  |  | 4.81 µM | 5.13 µM | 6.65 µM | 9.02 µM | 12.5 µM | 22.5 µM | 8.33 µM |  |  |  |  |  |  |  | 
S=P1(N2CCCCC2)Oc2ccc3ccccc3c2-c2c(ccc3ccccc23)O1 |  |  |  |  | > 100 µM | > 100 µM | > 100 µM | > 100 µM | > 100 µM | > 100 µM | > 100 µM |  |  |  |  |  |  |  | 
Cc1cc(C)c2c(c1)CC1(Cc3c(C)ccc(C)c3C1=O)C2=O (stereo not drawn) | > 100 µM | > 100 µM | > 100 µM | > 100 µM |  |  |  |  |  |  |  | > 100 µM |  |  |  |  |  | > 100 µM | 
N=C(N)c1ccc(-c2ccc(-c3ccccc3)s2)cc1 | 19.9 µM | 5.04 µM | 2.87 µM | 3.47 µM |  |  |  |  |  |  |  | 3.51 µM | 3.22 µM | 1.94 µM | 1.68 µM | 1.43 µM | 1.83 µM | 4.79 µM | 1.76 µM
O=[N+]([O-])c1ccccc1NC1c2ccccc2Oc2ccccc21 |  | > 100 µM | 66.6 µM | > 100 µM |  |  |  |  |  |  |  | > 100 µM |  | 8.35 µM | 3.53 µM | 3.95 µM | 27.8 µM | > 100 µM | 5.88 µM
O=C1C=CC2=[N+]([O-])C(c3ccccc3)(c3ccccc3)C(=Nc3ccccc3)C2=C1 |  |  |  |  | 3.14 µM | 3.32 µM |  | 5.22 µM | 3.36 µM | 15.6 µM | 2.71 µM | 3.76 µM |  |  |  |  |  |  | 
CCCCCCCC/C=C\CCCCCCCC(=O)O |  |  |  |  | 221 µM | 194 µM | 210 µM | > 500 µM | 183 µM | 130 µM | 13.6 µM |  |  |  |  |  |  |  | 
CN(C)Cc1cc(C(C)(C)C)ccc1-c1ccc(C(C)(C)C)cc1CN(C)C | > 100 µM | > 100 µM | > 100 µM | > 100 µM |  |  |  |  |  |  |  | > 100 µM |  |  |  |  |  | > 100 µM | 
CCN(CC)CCCNc1ncc(C)c2[nH]c3ccncc3c12 |  |  |  |  | > 79.9 µM | 24.1 µM | 25.8 µM | 31 µM | 28 µM | > 100 µM | 24 µM |  |  |  |  |  |  |  | 
CN1CCCCC(C#N)(c2ccccc2)CC1 (stereo not drawn) |  | > 100 µM |  | > 100 µM |  |  |  |  |  |  |  | > 100 µM |  |  |  |  |  | > 100 µM | 
COC(C(=O)C(O)C(C)O)C1CC2C=C3C=C(OC4CC(OC5CC(O)C(OC)C(C)O5)C(OC(C)=O)C(C)O4)C(C)C(=O)C3=C(O)C2=C(O)C1OC1CC(OC2CC(OC3CC(C)(O)C(OC(=O)C(C)C)C(C)O3)C(O)C(C)O2)C(O)C(C)O1 (stereo not drawn) |  | < 0.01 µM | < 0.01 µM |  |  |  |  |  |  |  |  | < 0.01 µM |  |  |  |  |  | < 0.01 µM | 
